Experimental data: PubChem BioAssay AID463224 (The Scripps Research Institute Molecular Screening Center, 2010)

Target: Serine/threonine-protein phosphatase 5 (Homo sapiens) (UniProt P53041)
Experiment: PP5 phosphohistone dephosphorylation inhibition IC50 – biochemical, radiolabel, powder samples, orthogonal assay for PP5 inhibitor project, dose response (AID 463224)
Settings: purified PP5c, 33P-phosphohistone dephosphorylation, scintillation

Serine/threonine-protein phosphatase 5 (Homo sapiens), sequence (P53041 whole entry, looked up): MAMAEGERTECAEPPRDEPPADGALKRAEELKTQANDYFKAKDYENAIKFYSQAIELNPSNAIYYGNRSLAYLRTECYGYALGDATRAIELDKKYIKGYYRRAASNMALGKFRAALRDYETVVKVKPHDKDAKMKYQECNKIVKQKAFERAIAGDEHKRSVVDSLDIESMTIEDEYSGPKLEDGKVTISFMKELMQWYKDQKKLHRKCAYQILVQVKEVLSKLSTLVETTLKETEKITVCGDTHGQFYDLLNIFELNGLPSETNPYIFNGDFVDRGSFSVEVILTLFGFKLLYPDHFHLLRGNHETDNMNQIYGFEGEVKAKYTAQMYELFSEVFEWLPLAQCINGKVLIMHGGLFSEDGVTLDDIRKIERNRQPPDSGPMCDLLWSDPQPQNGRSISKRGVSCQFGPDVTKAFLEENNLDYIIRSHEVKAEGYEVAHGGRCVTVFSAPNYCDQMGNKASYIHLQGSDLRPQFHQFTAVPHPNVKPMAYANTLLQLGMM

SMILES | IC50
O=C(O)c1n[nH]nc1-c1ccccc1 | 40.6 µM
O=C(O)C1C2CCC(O2)C1C(=O)NC1CCCCC1 (configuration not stated) | 13.5 µM
